# Results: patent US20240368135A1 (VERTEX PHARMACEUTICALS INCORPORATED, priority 2021, published 2024)
# Molecular target: human NaV 1.8 (Homo sapiens, UniProt Q9Y5Y9)
# Assay: E-VIPR assay detecting and measuring NaV inhibition properties
# Type: cell-based
# Conditions: HEK cells expressing truncated human NaV 1.8; in the presence of human serum (compound numbers followed by *); read-out: IC50 in the E-VIPR Assay, performed in the presence of human serum
# How it was run: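 HEK cells expressing truncated, fully active human NaV1.8, with KIR2.1 BacMam co-transduction, were loaded with CC2-DMPE/DiSBAC6(3) voltage-sensing dyes for 20 min at room temperature. Compounds were tested in 11-point 3-fold dilutions (300 nM top final), optionally with 25% human serum, under electrical stimulation with FRET read-out.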
# Sequence of human NaV 1.8 (Q9Y5Y9 126-399 limits assumed): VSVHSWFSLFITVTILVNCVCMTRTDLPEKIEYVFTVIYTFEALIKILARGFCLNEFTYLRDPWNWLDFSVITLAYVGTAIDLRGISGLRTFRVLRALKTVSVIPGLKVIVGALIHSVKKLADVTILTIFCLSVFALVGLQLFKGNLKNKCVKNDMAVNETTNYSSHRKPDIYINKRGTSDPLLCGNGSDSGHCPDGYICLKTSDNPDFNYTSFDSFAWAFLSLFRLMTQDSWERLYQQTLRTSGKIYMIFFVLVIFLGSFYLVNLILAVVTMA
# Sequence of human NaV 1.8 (Q9Y5Y9 660-890 limits assumed): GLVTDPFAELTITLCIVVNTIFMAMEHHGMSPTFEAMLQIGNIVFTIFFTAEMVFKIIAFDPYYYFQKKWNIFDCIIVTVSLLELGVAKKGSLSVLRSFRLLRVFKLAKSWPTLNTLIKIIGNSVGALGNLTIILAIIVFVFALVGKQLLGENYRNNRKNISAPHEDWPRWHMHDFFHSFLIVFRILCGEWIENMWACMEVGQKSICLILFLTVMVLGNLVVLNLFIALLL
# Sequence of human NaV 1.8 (Q9Y5Y9 1148-1722 limits assumed): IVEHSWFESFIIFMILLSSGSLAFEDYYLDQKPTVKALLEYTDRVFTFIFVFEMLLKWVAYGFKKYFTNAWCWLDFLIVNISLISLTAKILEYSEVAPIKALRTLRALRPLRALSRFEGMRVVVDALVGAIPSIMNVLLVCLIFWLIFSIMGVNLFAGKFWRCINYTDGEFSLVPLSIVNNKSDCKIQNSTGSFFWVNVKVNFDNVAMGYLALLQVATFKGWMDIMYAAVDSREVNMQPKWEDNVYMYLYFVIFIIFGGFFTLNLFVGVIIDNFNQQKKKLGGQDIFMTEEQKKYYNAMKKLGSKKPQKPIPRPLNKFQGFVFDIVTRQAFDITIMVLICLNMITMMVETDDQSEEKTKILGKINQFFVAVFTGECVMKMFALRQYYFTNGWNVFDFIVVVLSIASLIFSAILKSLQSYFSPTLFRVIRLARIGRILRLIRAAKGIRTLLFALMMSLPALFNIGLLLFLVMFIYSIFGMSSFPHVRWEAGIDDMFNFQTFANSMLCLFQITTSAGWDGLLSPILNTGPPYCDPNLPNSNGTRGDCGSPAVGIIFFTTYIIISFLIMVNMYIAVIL
row,SMILES,IC50 [nM]
1,"COc1c(C2CC(C)(C(F)(F)F)OC2C(=O)Nc2ccnc(C(O)C(C)O)c2)ccc(F)c1F (single isomer, unassigned) [Compound 696]",10 to 100
2,"COc1c(C2CC(C)(C(F)(F)F)OC2C(=O)Nc2ccnc(C(O)C(C)O)c2)ccc(F)c1F (single isomer, unassigned) [Compound 697]",≥ 1000
3,"COc1c([C@H]2C[C@@](C)(C(F)(F)F)O[C@@H]2C(=O)Nc2ccnc([C@H](O)CO)c2)ccc(F)c1C (single isomer, unassigned) [Compound 703]",≥ 1000
4,"COc1c([C@H]2C[C@@](C)(C(F)(F)F)O[C@@H]2C(=O)Nc2ccnc(C(O)CO)c2)ccc(F)c1C (single isomer, unassigned) [Compound 705]",≥ 1000
5,"CCOc1c([C@H]2C[C@@](C)(C(F)(F)F)O[C@@H]2C(=O)Nc2ccnc(C(O)CO)c2)ccc(F)c1F (single isomer, unassigned) [Compound 709]",≥ 1000
6,"COc1c(C2C(C(=O)Nc3ccnc(C(O)CO)c3)OC(C)(C)C2C)ccc(F)c1F (single isomer, unassigned) [Compound 722, rel-3-(3,4-difluoro-2-methoxyphenyl)-N-(2-(1,2-dihydroxyethyl)pyridin-4-yl)-4,5,5-trimethyltetrahydrofuran-2-carboxamide]",≥ 1000
7,"COc1c(C2C(C(=O)Nc3ccnc(C(C)(O)CO)c3)OC(C)(C)C2C)ccc(F)c1F (single isomer, unassigned) [Compound 725, rel-3-(3,4-difluoro-2-methoxyphenyl)-N-(2-(1,2-dihydroxypropan-2-yl)pyridin-4-yl)-4,5,5-trimethyltetrahydrofuran-2-carboxamide]",≥ 1000
8,"C[C@@H]1[C@H](c2ccc(F)c(F)c2OC(F)F)[C@@H](C(=O)Nc2ccnnc2)O[C@]1(C)C(F)(F)F (stereo in doubt) [Compound 63, rel-(2S,3R,4R,5S)-3-(2-(difluoromethoxy)-3,4-difluorophenyl)-4,5-dimethyl-N-(pyridazin-4-yl)-5-(trifluoromethyl)tetrahydrofuran-2-carboxamide]",≥ 1000

# Same assay, conditions: HEK cells expressing truncated human NaV 1.8; no human serum; read-out: IC50 in the E-VIPR Assay
row,SMILES,IC50 [nM]
1,"COc1c([C@@H]2C[C@](C)(C(F)(F)F)O[C@H]2C(=O)Nc2ccnc(C(C)(O)CO)c2)ccc(F)c1F (single isomer, unassigned) [Compound 701]",10 to 100
2,"COc1c([C@@H]2C[C@](C)(C(F)(F)F)O[C@H]2C(=O)Nc2ccnc([C@H](O)CO)c2)ccc(F)c1C (single isomer, unassigned) [Compound 704]",10 to 100
3,"COc1c([C@@H]2C[C@](C)(C(F)(F)F)O[C@H]2C(=O)Nc2ccnc([C@@H](O)CO)c2)ccc(F)c1C (single isomer, unassigned) [Compound 706]",10 to 100
4,"CCOc1c([C@@H]2C[C@](C)(C(F)(F)F)O[C@H]2C(=O)Nc2ccnc(C(O)CO)c2)ccc(F)c1F (single isomer, unassigned) [Compound 710]",10 to 100
5,"COc1c([C@H]2[C@H](C(=O)Nc3ccnc(C(C)(O)CO)c3)OC(C)(C)[C@H]2C)ccc(F)c1F (single isomer, unassigned) [Compound 731]",100 to 1000
6,"COc1c([C@H]2[C@H](C(=O)Nc3ccnc(C(C)(O)CO)c3)OC(C)(C)[C@H]2C)ccc(F)c1F (single isomer, unassigned) [Compound 732]",10 to 100
7,"CCOc1c([C@@H]2[C@@H](C(=O)Nc3ccnc(S(C)(=O)=O)c3)O[C@](C)(C(F)(F)F)[C@@H]2C)ccc(F)c1F (stereo in doubt) [Compound 4, rel-(2S,3R,4R,5S)-3-(2-ethoxy-3,4-difluorophenyl)-4,5-dimethyl-N-(2-(methylsulfonyl)pyridin-4-yl)-5-(trifluoromethyl)tetrahydrofuran-2-carboxamide]",≥ 1000
8,"C[C@H]1[C@@H](c2ccc(F)c(F)c2OC(F)F)[C@H](C(=O)Nc2ccnnc2)O[C@@]1(C)C(F)(F)F (stereo in doubt) [Compound 64, rel-(2R,3S,4S,5R)-3-(2-(difluoromethoxy)-3,4-difluorophenyl)-4,5-dimethyl-N-(pyridazin-4-yl)-5-(trifluoromethyl)tetrahydrofuran-2-carboxamide]",< 10
9,"C[C@@H]1[C@H](c2ccc(F)c(F)c2OC(F)F)[C@@H](C(=O)Nc2ccc(C(N)=O)cc2)O[C@]1(C)C(F)(F)F (stereo in doubt) [Compound 73, rel-(2S,3R,4R,5S)-N-(4-carbamoylphenyl)-3-(2-(difluoromethoxy)-3,4-difluorophenyl)-4,5-dimethyl-5-(trifluoromethyl)tetrahydrofuran-2-carboxamide]",≥ 1000
10,"C[C@H]1[C@@H](c2ccc(F)c(F)c2OC(F)F)[C@H](C(=O)Nc2ccc(C(N)=O)cc2)O[C@@]1(C)C(F)(F)F (stereo in doubt) [Compound 74, rel-(2R,3S,4S,5R)-N-(4-carbamoylphenyl)-3-(2-(difluoromethoxy)-3,4-difluorophenyl)-4,5-dimethyl-5-(trifluoromethyl)tetrahydrofuran-2-carboxamide]",< 10
11,"Cc1c(F)ccc([C@@H]2[C@@H](C(=O)Nc3ccn(C)c(=O)c3)O[C@](C)(C(F)(F)F)[C@@H]2C)c1OC(F)F (stereo in doubt) [Compound 99, rel-(2S,3R,4R,5S)-3-(2-(difluoromethoxy)-4-fluoro-3-methylphenyl)-4,5-dimethyl-N-(1-methyl-2-oxo-1,2-dihydropyridin-4-yl)-5-(trifluoromethyl)tetrahydrofuran-2-carboxamide]",≥ 1000
12,"Cc1c(F)ccc([C@H]2[C@H](C(=O)Nc3ccn(C)c(=O)c3)O[C@@](C)(C(F)(F)F)[C@H]2C)c1OC(F)F (stereo in doubt) [Compound 100, rel-(2R,3S,4S,5R)-3-(2-(difluoromethoxy)-4-fluoro-3-methylphenyl)-4,5-dimethyl-N-(1-methyl-2-oxo-1,2-dihydropyridin-4-yl)-5-(trifluoromethyl)tetrahydrofuran-2-carboxamide]",< 10
13,"CCOc1c([C@H]2[C@H](C(=O)Nc3ccn(C)c(=O)c3)O[C@@](C)(C(F)(F)F)[C@H]2C)ccc(F)c1F (stereo in doubt) [Compound 101, rac-(2R,3S,4S,5R)-3-(2-ethoxy-3,4-difluorophenyl)-4,5-dimethyl-N-(1-methyl-2-oxo-1,2-dihydropyridin-4-yl)-5-(trifluoromethyl)tetrahydrofuran-2-carboxamide]",< 10
14,"CCOc1c([C@@H]2[C@@H](C(=O)Nc3ccn(C)c(=O)c3)O[C@](C)(C(F)(F)F)[C@@H]2C)ccc(F)c1F (stereo in doubt) [Compound 102, rel-(2S,3R,4R,5S)-3-(2-ethoxy-3,4-difluorophenyl)-4,5-dimethyl-N-(1-methyl-2-oxo-1,2-dihydropyridin-4-yl)-5-(trifluoromethyl)tetrahydrofuran-2-carboxamide]",≥ 1000
15,"CCOc1c([C@H]2[C@H](C(=O)Nc3ccn(C)c(=O)c3)O[C@@](C)(C(F)(F)F)[C@H]2C)ccc(F)c1F (stereo in doubt) [Compound 103, rel-(2R,3S,4S,5R)-3-(2-ethoxy-3,4-difluorophenyl)-4,5-dimethyl-N-(1-methyl-2-oxo-1,2-dihydropyridin-4-yl)-5-(trifluoromethyl)tetrahydrofuran-2-carboxamide]",< 10
16,"CCOc1c([C@@H]2[C@@H](C(=O)Nc3cncc(S(C)(=O)=O)c3)O[C@](C)(C(F)(F)F)[C@@H]2C)ccc(F)c1F (stereo in doubt) [Compound 106, rel-(2S,3R,4R,5S)-3-(2-ethoxy-3,4-difluorophenyl)-4,5-dimethyl-N-(5-(methylsulfonyl)pyridin-3-yl)-5-(trifluoromethyl)tetrahydrofuran-2-carboxamide]",100 to 1000
17,"CCOc1c([C@H]2[C@H](C(=O)Nc3cncc(S(C)(=O)=O)c3)O[C@@](C)(C(F)(F)F)[C@H]2C)ccc(F)c1F (stereo in doubt) [Compound 107, rel-(2R,3S,4S,5R)-3-(2-ethoxy-3,4-difluorophenyl)-4,5-dimethyl-N-(5-(methylsulfonyl)pyridin-3-yl)-5-(trifluoromethyl)tetrahydrofuran-2-carboxamide]",< 10
18,"CCOc1c([C@H]2[C@H](C(=O)Nc3ccnc(S(C)(=O)=O)c3)O[C@@](C)(C(F)(F)F)[C@H]2C)ccc(F)c1F (stereo in doubt) [Compound 108, rel-(2R,3S,4S,5R)-3-(2-ethoxy-3,4-difluorophenyl)-4,5-dimethyl-N-(2-(methylsulfonyl)pyridin-4-yl)-5-(trifluoromethyl)tetrahydrofuran-2-carboxamide]",< 10
19,"CCOc1c([C@H]2[C@H](C(=O)Nc3ccn4nnnc4c3)O[C@@](C)(C(F)(F)F)[C@H]2C)ccc(F)c1C (stereo in doubt) [Compound 121, rac-(2R,3S,4S,5R)-3-(2-ethoxy-4-fluoro-3-methylphenyl)-4,5-dimethyl-N-(tetrazolo[1,5-a]pyridin-7-yl)-5-(trifluoromethyl)tetrahydrofuran-2-carboxamide]",< 10
20,"CCOc1c([C@@H]2[C@@H](C(=O)Nc3ccn4nnnc4c3)O[C@](C)(C(F)(F)F)[C@@H]2C)ccc(F)c1C (stereo in doubt) [Compound 122, rel-(2S,3R,4R,5S)-3-(2-ethoxy-4-fluoro-3-methylphenyl)-4,5-dimethyl-N-(tetrazolo[1,5-a]pyridin-7-yl)-5-(trifluoromethyl)tetrahydrofuran-2-carboxamide]",100 to 1000
21,"CCOc1c([C@H]2[C@H](C(=O)Nc3ccn4nnnc4c3)O[C@@](C)(C(F)(F)F)[C@H]2C)ccc(F)c1C (stereo in doubt) [Compound 123, rel-(2R,3S,4S,5R)-3-(2-ethoxy-4-fluoro-3-methylphenyl)-4,5-dimethyl-N-(tetrazolo[1,5-a]pyridin-7-yl)-5-(trifluoromethyl)tetrahydrofuran-2-carboxamide]",< 10
